Patent US9295671B2, “Benzenesulfonamide derivatives of quinoxaline, pharmaceutical compositions thereof, and their use in methods for treating cancer” (NEUPHARMA, INC., priority 2011, dated 2016)

Legend:
BRAF [1] = biological target: T1, BRAF (Homo sapiens, UniProt P15056); assay: Z′-LYTE kinase assay, BRAF (Invitrogen); format: biochemical; details: Z′-LYTE method
T1 construct: purchased Invitrogen
Method: (§1) Inhibitory activities of compounds against BRAF or BRAF V600E were measured by Invitrogen using Z′-LYTE® Method as briefly described in the following.
(§2) 4× Test compounds are dissolved in 1% DMSO. […] ATP solutions are diluted to a 4×ATP working concentration in Kinase Buffer (50 mM HEPES pH 7.5, 0.01% BRIJ-35, 10 mM MgCl2, 1 mM EGTA).
(§3) Reaction starts by 30-second shaking of mixture consisting of 2.5 μL4× test compound, […] and 2.5 μL 4×ATP Solution on Bar-coded Corning, low volume NBS, black 384-well plate (Corning Cat. #3676). Then the mixture is incubated for 60-minute at room temperature for the kinase reaction, followed by addition of 5 μL of a 1:1024 dilution of development reagent A and 30-second plate shake. The mixture is then incubated for another 60-minute at room temperature for development reaction. Finally fluorescence is read by plate reader.

BRAF V600E [2] = biological target: T2, BRAF V600E (Homo sapiens, UniProt P15056, V600E); assay: Z′-LYTE kinase assay, BRAF V600E (Invitrogen); format: biochemical; details: Z′-LYTE method
T2 construct: purchased Invitrogen
T2 sequence (P15056 whole entry V600E): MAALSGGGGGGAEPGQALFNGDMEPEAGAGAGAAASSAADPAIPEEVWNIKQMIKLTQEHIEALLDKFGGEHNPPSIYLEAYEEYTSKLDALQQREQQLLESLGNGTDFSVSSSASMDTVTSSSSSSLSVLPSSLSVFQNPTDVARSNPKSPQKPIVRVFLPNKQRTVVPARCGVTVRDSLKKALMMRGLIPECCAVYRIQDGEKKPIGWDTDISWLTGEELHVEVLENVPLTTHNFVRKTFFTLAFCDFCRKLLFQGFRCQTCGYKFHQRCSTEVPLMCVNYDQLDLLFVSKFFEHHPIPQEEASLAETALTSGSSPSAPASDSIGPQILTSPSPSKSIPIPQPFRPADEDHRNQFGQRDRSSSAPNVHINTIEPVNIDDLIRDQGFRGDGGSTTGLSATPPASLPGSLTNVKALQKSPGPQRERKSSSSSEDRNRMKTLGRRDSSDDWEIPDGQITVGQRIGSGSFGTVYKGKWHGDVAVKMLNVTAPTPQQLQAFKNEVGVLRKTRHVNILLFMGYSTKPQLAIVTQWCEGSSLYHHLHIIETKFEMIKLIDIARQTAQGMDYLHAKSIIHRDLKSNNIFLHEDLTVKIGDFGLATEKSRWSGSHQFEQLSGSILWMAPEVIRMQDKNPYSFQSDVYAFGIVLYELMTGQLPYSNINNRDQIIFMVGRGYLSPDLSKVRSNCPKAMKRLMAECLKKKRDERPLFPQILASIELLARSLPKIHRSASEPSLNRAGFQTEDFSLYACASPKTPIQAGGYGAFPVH
Method: as §1, §2, §3

A549 cells = assay: Inhibition of cancer cell growth, MTT assay, A549; format: cell-based; details: Homo sapiens, 72 h
Method: (§4) Inhibition of cell growth by compounds was measured using MTT assay (Mosmann, T., Journal of Immunological Methods, 1983, 65, 55-63). Tumor cell lines were purchased from ATCC (American Type Culture Collection, Manassas, Va.). All cell lines were maintained in RPMI 1640 (Hyclone) supplemented with 10% fetal bovine serum (FBS, Hyclone), glutamine (2 mM, Hyclone), and antibiotics (penicillin 100 U/mL and streptomycin 50 μg/mL) at 37° C. in a humidified atmosphere of 5% CO2 in air. Taxol (as a positive control, Sigma) and compounds were dissolved in DMSO (Sigma), and the final concentration of DMSO in the medium was 1%. Tumor cells were plated in 96-well plates at densities of about 4000 cells/well of a 96-well plate and allowed to adhere/grow for 24 h. They were then treated with various concentrations of drug for 72 h. 3-(4,5-Dimethylthiazol-2-yl)-2,5-diphenyltetrazolium bromide (MTT, Sigma) was used to determine the number of viable cells at the time of compound addition and the number of cells remaining after 72 h compound exposure. The number of cells remaining after 72 h was compared to the number of viable cells at the time of compound addition by measuring the absorbance at 570 nm, allowing for the calculation of growth inhibition.
(§5) All concentrations of compounds were tested in triplicate and controls were averaged over 4 wells. IC50 was calculated by plotting the concentration of compound vs the percentage of inhibition in treated wells using GraphPad Prism 5.
(§6) The scale utilized in Table 4 is as follows: +++ less than 500 nM; ++ between 500 nM and 1 μM; and + greater than 1 μM.

A375 cells = assay: Inhibition of cancer cell growth, MTT assay, A375; format: cell-based; details: Homo sapiens, A-375, 72 h (Table 4)
Method: as §4, §5, §6

BRAF [3] = biological target: T1, BRAF; assay: LanthaScreen kinase assay, BRAF; format: biochemical; details: ATP 1 μM
Method: (§7) The inhibitory activities of compounds against BRAF or BRAF V600E protein were measured using Invitrogne's LanthaScreen™ kinase assay which is based on fluorescein-labeled MAP2K1 as a substrate. The assay procedure is described as follows.
(§8) The scale utilized in Table 3 is as follows: ++++ less than 50 nM; +++ between 50 and 100 nM; ++ between 100 nM and 1 μM; and + greater than 1 μM.

BRAF V600E [4] = biological target: T2, BRAF V600E; assay: LanthaScreen kinase assay, BRAF V600E; format: biochemical; details: ATP 10 μM
Method: as §7, §8

T1 sequence (P15056 whole entry): as the sequence (P15056 whole entry V600E) above, with E600V counted along it

Row | Compound | inhibition at 1 µM (BRAF [1]) [%] | inhibition at 1 µM (BRAF V600E [2]) [%] | IC50 (A549 cells) [nM] | IC50 (A375 cells) [nM] | IC50 (BRAF [3]) [nM] | IC50 (BRAF V600E [4]) [nM]
1 | CCCS(=O)(=O)Nc1ccc(F)c(C(=O)c2ccc3ncc(N4CCOCC4)nc3c2)c1 [Compound C17, N-(4-fluoro-3-(3-morpholinoquinoxaline-6-carbonyl)phenyl)propane-1-sulfonamide] |  | < 70 | > 1000 | > 1000 |  | 
2 | CCCS(=O)(=O)Nc1cc(F)cc(C(=O)c2ccc3nccnc3c2)c1 [Compound C16, N-(3-fluoro-5-(quinoxaline-6-carbonyl)phenyl)propane-1-sulfonamide] |  | < 70 | > 1000 | > 1000 |  | 
3 | CCCS(=O)(=O)Nc1cc(F)cc(C(=O)c2ccc3ncc(N4CCOCC4)nc3c2)c1 [Compound C18, N-(3-fluoro-5-(3-morpholinoquinoxaline-6-carbonyl)phenyl)propane-1-sulfonamide] |  | < 70 | > 1000 | > 1000 | 50 to 100 | < 50
4 | CCCS(=O)(=O)Nc1ccc(F)c(C(=O)c2ccc3ncc(OC)nc3c2)c1F [Compound C03, N-(2,4-difluoro-3-(3-methoxyquinoxaline-6-carbonyl)phenyl)propane-1-sulfonamide] | 70 to 89 | > 89 | > 1000 | > 1000 |  | 
5 | CCCS(=O)(=O)Nc1cc(F)c(F)c(C(=O)c2ccc3ncc(N4CCOCC4)nc3c2)c1 [Compound C37, N-(3,4-difluoro-5-(3-morpholinoquinoxaline-6-carbonyl)phenyl)propane-1-sulfonamide] |  | 70 to 89 | > 1000 | > 1000 | 100 to 1000 | 50 to 100
6 | CCCS(=O)(=O)Nc1ccc(F)c(C(=O)c2ccc3nccnc3c2)c1 [Compound C15, N-(4-fluoro-3-(quinoxaline-6-carbonyl)phenyl)propane-1-sulfonamide] |  | < 70 | > 1000 | > 1000 |  | 

Second part, the molecule after the results:

Row | inhibition at 1 µM (BRAF [1]) [%] | inhibition at 1 µM (BRAF V600E [2]) [%] | IC50 (A549 cells) [nM] | IC50 (A375 cells) [nM] | IC50 (BRAF [3]) [nM] | IC50 (BRAF V600E [4]) [nM] | Compound
7 | 70 to 89 | > 89 | > 1000 | > 1000 |  |  | CCCS(=O)(=O)Nc1cc(F)c(F)c(C(=O)c2ccc3ncc(Cl)nc3c2)c1F [Compound C11, N-(3-(3-chloroquinoxaline-6-carbonyl)-2,4,5-trifluorophenyl)propane-1-sulfonamide]
8 | > 89 | 70 to 89 | > 1000 | < 500 |  |  | CCCS(=O)(=O)Nc1cc(F)c(F)c(C(=O)c2ccc3nccnc3c2)c1Cl [Compound C14, N-(2-chloro-4,5-difluoro-3-(quinoxaline-6-carbonyl)phenyl)propane-1-sulfonamide]
9 | < 70 | < 70 | > 1000 | > 1000 |  |  | CCCS(=O)(=O)Nc1cc(F)c(SC)c(C(=O)c2ccc3nccnc3c2)c1F [Compound C08, N-(2,5-difluoro-4-(methylthio)-3-(quinoxaline-6-carbonyl)phenyl)propane-1-sulfonamide]
10 | 70 to 89 | > 89 | < 500 | < 500 |  |  | CCCS(=O)(=O)Nc1ccc(F)c(C(=O)c2ccc3nccnc3c2)c1F [Compound C01, N-(2,4-difluoro-3-(quinoxaline-6-carbonyl)phenyl)propane-1-sulfonamide]
11 | < 70 | 70 to 89 | > 1000 | 500 to 1000 |  |  | CCCS(=O)(=O)Nc1cc(F)c(F)c(C(=O)c2ccc3nccnc3c2)c1 [Compound C07, N-(3,4-difluoro-5-(quinoxaline-6-carbonyl)phenyl)propane-1-sulfonamide]
12 | 70 to 89 | > 89 | < 500 | 500 to 1000 |  |  | CCCS(=O)(=O)Nc1ccc(F)c(C(=O)c2ccc3ncc(C#N)nc3c2)c1F [Compound C05, N-(3-(3-cyanoquinoxaline-6-carbonyl)-2,4-difluorophenyl)propane-1-sulfonamide]
